Publication PMC6405172, “In vitro activity and mode of action of phenolic compounds on Leishmania donovani” (PLoS Neglected Tropical Diseases, 2019)

Legend:
[1] = tested on: L. donovani promastigotes; assay: Cell cycle analysis by flow cytometry; assay type: cell-based, Leishmania donovani; settings: 24 hours; for increase in G0/G1 cells / decrease in the number of parasites at the M phase: 2x IC50 (amphotericin B 1/2 IC50); for increase in G0/G1 cells: versus untreated 34.6%
Procedure: Cell cycle analysis of treated and untreated L. donovani promastigotes was performed using flow cytometry. […] The fixed cells were harvested, resuspended in 1x PBS for 1 min and washed twice in 1x PBS. Staining solution (Guava cell cycle reagent) was added and incubated at room temperature for 30 min. The percentage cell count in G0, G1, S, G2 and M phases of the cell cycle were determined with BD LSR Fortessa™^. X-20 analyzer (BD Biosciences) and data was analyzed with FlowJo software.

[2] = tested on: ribonucleotide reductase (RNR); assay: RT-qPCR mRNA expression of RNR; assay type: cell-based, Leishmania donovani; settings: promastigotes, 24 hours; for RNR Relative quantity: Fig 7C
Procedure: (§1) Promastigotes (1 x 10^7 cells) were separately treated with rosmarinic acid, apigenin, amphotericin B and deferoxamine, harvested after 24 hours incubation at 25°C. The parasites were then pelleted by centrifugation at 239 × g for 10 min and the pellet was re-suspended in 1 mL TRIzol. Samples were incubated overnight at -80°C and total RNA was extracted as described by the manufacturer’s protocol using Quick-RNA MiniPrep Plus (Zymo Research, USA). Purity of total RNA was determined to be approximately 2.0 using a Nanodrop. The oligonucleotide primers for the amplification of the iron dependent enzymes—ribonucleotide reductase (RNR) (3’[…] and 5’CAACAACTTCTGCGCATCG), iron superoxide dismutase A (FeSOD) (3’[…] and 5’[…]) and Leishmania iron transporter 1 (LIT1) (3’[…] and 5’ […]) were designed using sequences of Leishmania reference genome from tritrypdb.org (http://tritrypdb.org/tritrypdb/) and Primer 3 software. The oligonucleotide primers used in amplifying the housekeeping gene Histone 2A were (3’ […] and 5’[…]). The RT-qPCR reaction was conducted as described by manufacturer’s protocol with final concentrations of oligonucleotide primers as 0.4 μM, 1x Luna Universal One-Step Reaction mix, 1x Luna WarmStart RT Enzyme Mix and template RNA ≤ 1 μg. All the RT-PCR products were standardized with respect to the endogenous control, Histone 2A. The levels of the mRNA transcripts were obtained using the QuantStudio 5 Real-Time PCR System (Applied Biosystems). The data represent three independent experiments done in triplicate and a fold change in gene expression of >2 was considered significant.

[3] = tested on: iron superoxide dismutase A (FeSOD); assay: RT-qPCR mRNA expression of FeSOD; assay type: cell-based, Leishmania donovani; settings: promastigotes, 24 hours; for FeSOD Relative quantity: Fig 7B
Procedure: as §1

[4] = tested on: Leishmania iron transporter 1 (LIT1); assay: RT-qPCR mRNA expression of LIT1; assay type: cell-based, Leishmania donovani; settings: promastigotes, 24 hours; for LIT1 Relative quantity: Fig 7A
Procedure: as §1

[5] = tested on: L. donovani promastigotes; assay: Morphology analysis (DAPI, microscopy); assay type: cell-based, Leishmania donovani; settings: 24 hours; for parasites with rounded morphology, aggregated kinetoplast and nuclear DNA: 2x IC50
Procedure: The cell pellets were then washed twice and resuspended in 1x PBS. The cells were then allowed to settle on poly-L-lysine coated slides and then rinsed with 1x PBS. Tris-HCl (100 mM) pH 7.5 in 1x PBS was used to block the PFA for 10 minutes. DAPI stain (0.1μg/mL) was added followed by one wash in 1x PBS. Coverslips were mounted onto the slides using Vectashield mounting media and observed under the Olympus fluorescent microscope to detect any phenotypic changes in L. donovani promastigotes. The total number of parasites was determined by direct counting of parasites per field, using ImageJ Software. The frequency of parasites was visually determined by counting parasites that had any abnormalities in their structure compared to the untreated control.

[6] = tested on: Leishmania donovani promastigotes; assay: Promastigote viability assay (MTT); assay type: cell-based; settings: for IC50: Leishmania donovani, MTT, 72 hours at 25°C, read-out: Promastigotes IC50 (μM) ± SD; for Selectivity Index (CC50/IC50), promastigotes: CC50 Raw 264.7 / IC50 promastigotes
Procedure: The MTT assay was done as previously described. Briefly, promastigotes (2 x 10^5 cells) were cultured in freshly prepared M-199 medium supplemented with 10% heat inactivated fetal bovine serum in the presence or absence of varying concentrations of the phenolic compounds (0–50 μg/mL) for 72 hours at 25°C. Amphotericin B (0–50 μg/mL) and deferoxamine (0–50 μg/mL) were used as positive controls. After incubation, 5 mg/mL MTT solution was added to the promastigotes in each well and incubated for 3 hours at 25°C. In this assay, the yellow tetrazolium MTT dye was reduced to insoluble formazan crystals (purple color) in living cells using NADH as their reducing agent. Formazan crystals formed after incubation were solubilized with acidified isopropanol and incubated at 37°C for 30 min. The change in color from yellow to purple was read at an absorbance of 570 nm using Thermo Scientific Varioskan LUX. The cell viability and IC50 were determined from the concentration response curve generated using GraphPad Prism 6.0 Software.

[7] = tested on: Leishmania donovani promastigotes; assay: Parasite growth analysis (trypan blue counting); assay type: cell-based; settings: IC50 concentrations; for decrease in the number of promastigotes: at 48 hours
Procedure: The dose dependent inhibition of phenolic compounds on promastigotes was determined by culturing promastigotes (2 x 10^5 cells) in freshly prepared M199 medium in the presence and absence of varying concentration of the test compounds, apigenin (IC50, 2x IC50, 4x IC50), rosmarinic acid (IC50, 2x IC50, 4x IC50), amphotericin B (1/2 IC50, IC50) and deferoxamine (IC50, 2x IC50, 4x IC50), for 120 hours. The number of parasites was determined by staining with trypan blue every 24 hours. Quantification of the viable parasites was determined by counting the parasites with the clear cytoplasm (non-stained) using a Neubauer hemocytometer with a cover slip. Three independent experiments were performed, and data expressed as mean ± standard deviation.

Compound | increase in G0/G1 cells [1] | change in the number of parasites at the S phase ([1]; versus untreated) | increased expression of RNR [2] | RNR Relative quantity [2] | FeSOD mRNA expression versus untreated [3] | FeSOD Relative quantity [3] | LIT1 mRNA expression versus untreated [4] | LIT1 Relative quantity [4] | parasites showing irregular shape, severe distortion in the cell membrane, loss of kinetoplast DNA ([5]; half the IC50) | IC50 [6] | reduction in the number of parasites ([7]; at 24 hours) | decrease in the number of parasites at the M phase ([1]; versus untreated) | Selectivity Index (CC50/IC50), promastigotes [6] | decrease in the number of promastigotes [7] | decrease in the expression of RNR [2] | parasites with rounded morphology, aggregated kinetoplast and nuclear DNA [5]
C[C@@H]1[C@H](O)[C@@H](C)/C=C/C=C/C=C/C=C/C=C/C=C/C=C/[C@H](O[C@@H]2O[C@H](C)[C@@H](O)[C@H](N)[C@@H]2O)C[C@@H]2O[C@](O)(C[C@@H](O)C[C@@H](O)[C@H](O)CC[C@@H](O)C[C@@H](O)CC(=O)O[C@H]1C)C[C@H](O)[C@H]2C(=O)O [Amphotericin B, reference compound] | 13.1% | significant increase | 3 fold | 3.2 | did not significantly change | 0.7 | 5 fold | 4.7 | 90% | 6.56 ± 0.06 µM | 90% | – | – | – | – | –
O=c1cc(-c2ccc(O)cc2)oc2cc(O)cc(O)c12 [Apigenin, apigenin] | 8% | – | 3 fold | 2.5 | did not significantly change | 0.7 | no observed change | 0.8 | – | 22.77 ± 0.01 µM | – | 6.8% | 10.45 | 50% | – | –
CC(=O)N(O)CCCCCNC(=O)CCC(=O)N(O)CCCCCNC(=O)CCC(=O)N(O)CCCCCN [Deferoxamine, deferoxamine, reference compound] | 7% | – | – | 0.2 | 5 fold | 5.0 | 125 fold | 125 | – | 10.35 ± 0.01 µM | – | 7.7% | 2.60 | 50% | 80 % reduction | 90%
O=C(/C=C/c1ccc(O)c(O)c1)O[C@H](Cc1ccc(O)c(O)c1)C(=O)O [Rosmarinic acid, rosmarinic acid] | 7.1% | – | – | 0.1 | did not significantly change | 1.3 | 3 fold | 3.0 | – | 16.34 ± 0.1 µM | – | 8.0% | 15.03 | 50% | 90 % reduction | 70%
